Laboratory results taken from patent US20250109343A1, “CORROSION INHIBITOR” (INNOSPEC LIMITED, priority 2022, published 2025).

Tests used:
[1] = Linear Polarisation Resistance (LPR) Test, Example 30, synthetic brine composition 1 or 2
[2] = LPR test of Example 31, variety of brines and brine/depolarised kerosene fluids
Procedure: The LPR test was carried out using the corrosion inhibitor of Example 1. The LPR test was carried out using the same conditions as the LPR test of Example 30 except for the composition of the corrosive fluid, the temperature, and the dose of the corrosion inhibitor.

[3] = brine composition 1, dose 40 ppm of product, one addition, time 19.9-20.1 hr, 60° C., constant CO2 sparge
[4] = brine composition 2, dose 40* ppm, four additions each of 10 ppm, time 25.3-28.8 hr, 60° C., constant CO2 sparge
[5] = Test 1: brine composition 1 (Table 6), 60 ° C., dose 50 ppm, 4 hours
[6] = Test 3: brine composition 3 and depolarised kerosene 90:10 volume ratio, 82 ° C., dose 60 ppm, 5 hours
[7] = Test 4: brine composition 4 and depolarised kerosene 90:10 volume ratio, 82 ° C., dose 60 ppm, 5 hours
[8] = Test 5: brine composition 5 and depolarised kerosene 90:10 volume ratio, 82 ° C., dose 60 ppm, 5 hours
[9] = Test 6: brine composition 6 and depolarised kerosene 90:10 volume ratio, 82 ° C., dose 60 ppm, 5 hours

sodium 1-hexanol dodecenyl succinate [Example 10]
Corrosion protection [1]: 92%
Corrosion rate [1]: 0.29 mmpy

sodium 1,6-hexanediol dodecenyl succinate [Example 15]
Corrosion protection [1]: 41%
Corrosion rate [1]: 1.68 mmpy

disodium 2-octen-1-ylsuccinate [Example 5]
Corrosion protection [1, 3]: 89%
Corrosion rate [1, 3]: 0.46 mmpy

sodium benzyl alcohol dodecenyl succinate [Example 8]
Corrosion protection [1]: 96%
Corrosion rate [1]: 0.14 mmpy

sodium diethanolamine dodecenylsuccinamide [Example 4]
Corrosion protection [1]: 99%
Corrosion rate [1]: 0.06 mmpy

sodium dodecanol phthalate [Example 26]
Corrosion protection [1]: 99%

sodium 3-dimethylaminopropylamine dodecenyl succinamide [Example 13]
Corrosion protection [1]: 46%
Corrosion rate [1]: 1.73 mmpy

triethanolamine PEG200 2-octen-1-yl succinate [Example 22]
Corrosion protection [1]: 68%
Corrosion rate [1]: 2.44 mmpy

potassium PEG200 2-octen-1-yI succinate [Example 21]
Corrosion protection [1, 4]: 59%
Corrosion rate [1, 4]: 2.24 mmpy

sodium 2-ethyl-1,3-hexanediol dodecenyl succinate [Example 9]
Corrosion protection [1]: 51%
Corrosion rate [1]: 2.02 mmpy

sodium PEG200 2-octen-1-ylsuccinate [Example 1]
Corrosion protection [2, 5]: 96%
Corrosion rate [2, 5]: 0.1320 mmpy
Corrosion protection ([2]; Test 2: brine composition 2 (Table 6), 60 ° C., dose 50 ppm, 4 hours): 96%
Corrosion protection [2, 6]: 99%
Corrosion rate [2, 6]: 0.0358 mmpy
Corrosion protection [2, 7]: 98%
Corrosion rate [2, 7]: 0.0833 mmpy
Corrosion protection [2, 8]: 96%
Corrosion rate [2, 8]: 0.1387 mmpy
Corrosion protection [2, 9]: 95%
Corrosion rate [2, 9]: 0.1646 mmpy
Corrosion inhibition, result in words ([2]; variety of brines and brine/hydrocarbon emulsions): effective corrosion inhibitor
Corrosion protection [1]: 99%
Corrosion rate [1]: 0.03 mmpy

sodium furfuryl alcohol dodecenyl succinic anhydride [Example 28]
Corrosion protection [1]: 99%
Corrosion rate [1]: 0.04 mmpy
